# Reference: ChEMBL document CHEMBL1153395, “Development of a novel virtual screening cascade protocol to identify potential trypanothione reductase inhibitors” (J Med Chem, 2009)
# Target: Trypanothione reductase (Trypanosoma brucei brucei, UniProt P39051)
# Test: Inhibition of Trypanosoma brucei Trypanothione reductase
# Sequence of Trypanothione reductase (Trypanosoma brucei brucei, UniProt P39051) (P39051 whole entry): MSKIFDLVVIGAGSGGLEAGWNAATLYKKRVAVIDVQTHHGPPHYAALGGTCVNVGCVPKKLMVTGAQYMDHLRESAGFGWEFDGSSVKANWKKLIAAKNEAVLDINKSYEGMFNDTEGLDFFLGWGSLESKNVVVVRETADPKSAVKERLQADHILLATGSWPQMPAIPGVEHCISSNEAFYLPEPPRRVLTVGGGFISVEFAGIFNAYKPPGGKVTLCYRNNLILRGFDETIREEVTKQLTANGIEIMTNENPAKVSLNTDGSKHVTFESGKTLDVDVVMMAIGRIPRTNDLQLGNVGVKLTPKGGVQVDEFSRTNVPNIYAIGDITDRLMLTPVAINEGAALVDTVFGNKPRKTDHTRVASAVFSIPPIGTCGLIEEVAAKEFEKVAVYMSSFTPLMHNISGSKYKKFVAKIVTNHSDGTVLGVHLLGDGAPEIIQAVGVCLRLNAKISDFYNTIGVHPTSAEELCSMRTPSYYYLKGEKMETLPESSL
row,Structure (SMILES),IC50 [µM]
1,NCCCCC(N)C(=O)Nc1ccc2ccccc2c1 (configuration not stated),> 100
2,CC12CN3CC(C)(C1)C[N+](Cc1cccc(Br)c1)(C3)C2,> 100
3,O=C(CN1C(=O)C2CC=CCC2C1=O)Nc1ccccc1Sc1ccc(Cl)cc1 (configuration not stated),> 100
4,Cc1ccc(N2CC(C(=O)Nc3ccccc3Sc3ccccc3)CC2=O)cc1 (configuration not stated),> 100
5,C[N+]1(C)CCCC2c3ccccc3Sc3ccc(Cl)cc3C21 (configuration not stated),58.7
6,C[N+]1(Cc2ccccc2)CCC(/N=C/C2C(=O)NC(=O)N(C3CCCCC3)C2=O)CC1 (configuration not stated),> 100
7,O=C(CN1C(=O)NC2(CCCCCC2)C1=O)Nc1ccccc1Sc1ccccc1,> 100
8,CC1CCCCC12NC(=O)N(CC(=O)Nc1ccccc1Sc1ccccc1)C2=O (configuration not stated),> 100
9,CC(NS(=O)(=O)c1ccccc1)C(=O)Nc1ccccc1Sc1ccccc1 (configuration not stated),> 100
10,CN(CC(=O)Nc1ccccc1Sc1ccccc1)C1CCCCC1,46.9
11,CCN1CCN(C2Cc3ccccc3Sc3ccc(Cl)cc32)CC1 (configuration not stated),36
12,O=C(CCN1CCN2CCCCC2C1)N1c2ccccc2Sc2ccc(Cl)cc21 (configuration not stated),31.9
13,O=C(CN1CCN(c2ccccc2)CC1)Nc1ccccc1Sc1ccccc1,> 100
14,CN1CCN(C2=NC(=O)CC(C(=O)Nc3cccc(Cl)c3)N2)CC1 (configuration not stated),> 100
15,CN(C)CCCC1Sc2ccccc2Sc2ccccc21 (configuration not stated),37.3
16,CN1CCCC(CC2Oc3ccccc3Sc3ccccc32)C1 (configuration not stated),14.6
17,NC(=O)C1(N2CCCCC2)CCN(CC(=O)Nc2ccccc2Sc2ccccc2)CC1,> 100
18,O=C(CN1CCCCCC1)N1c2ccccc2Sc2ccc(Cl)cc21,> 100
19,c1ccc2c(c1)Sc1ccccc1N2CC1CN2CCC1CC2 (configuration not stated) [MEQUITAZINE],54.3

# Target: Trypanothione reductase (Trypanosoma cruzi, UniProt P28593)
# Test: Inhibition of Trypanosoma cruzi Trypanothione reductase
# Sequence of Trypanothione reductase (Trypanosoma cruzi, UniProt P28593) (P28593 whole entry): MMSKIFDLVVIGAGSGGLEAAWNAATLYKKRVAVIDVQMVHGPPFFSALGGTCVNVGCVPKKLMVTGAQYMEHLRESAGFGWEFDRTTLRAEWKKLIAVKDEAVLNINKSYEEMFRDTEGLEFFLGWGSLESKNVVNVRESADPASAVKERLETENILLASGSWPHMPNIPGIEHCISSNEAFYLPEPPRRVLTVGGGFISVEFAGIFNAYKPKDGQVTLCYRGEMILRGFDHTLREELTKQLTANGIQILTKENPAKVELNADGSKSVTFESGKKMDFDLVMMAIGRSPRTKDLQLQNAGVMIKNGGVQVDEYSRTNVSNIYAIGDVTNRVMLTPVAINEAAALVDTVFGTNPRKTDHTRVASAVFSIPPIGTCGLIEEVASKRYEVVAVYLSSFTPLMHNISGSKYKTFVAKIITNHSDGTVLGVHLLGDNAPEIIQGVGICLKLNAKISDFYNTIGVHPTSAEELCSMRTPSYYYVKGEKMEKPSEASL
row,Structure (SMILES),IC50 [µM]
1,NCCCCC(N)C(=O)Nc1ccc2ccccc2c1 (configuration not stated),> 100
2,CC12CN3CC(C)(C1)C[N+](Cc1cccc(Br)c1)(C3)C2,> 100
3,O=C(CN1C(=O)C2CC=CCC2C1=O)Nc1ccccc1Sc1ccc(Cl)cc1 (configuration not stated),> 100
4,Cc1ccc(N2CC(C(=O)Nc3ccccc3Sc3ccccc3)CC2=O)cc1 (configuration not stated),> 100
5,C[N+]1(C)CCCC2c3ccccc3Sc3ccc(Cl)cc3C21 (configuration not stated),75.3
6,C[N+]1(Cc2ccccc2)CCC(/N=C/C2C(=O)NC(=O)N(C3CCCCC3)C2=O)CC1 (configuration not stated),45.2
7,O=C(CN1C(=O)NC2(CCCCCC2)C1=O)Nc1ccccc1Sc1ccccc1,> 100
8,CC(NS(=O)(=O)c1ccccc1)C(=O)Nc1ccccc1Sc1ccccc1 (configuration not stated),> 100
9,CN(CC(=O)Nc1ccccc1Sc1ccccc1)C1CCCCC1,56.3
10,CCN1CCN(C2Cc3ccccc3Sc3ccc(Cl)cc32)CC1 (configuration not stated),29.1
11,O=C(CCN1CCN2CCCCC2C1)N1c2ccccc2Sc2ccc(Cl)cc21 (configuration not stated),35.4
12,O=C(CN1CCN(c2ccccc2)CC1)Nc1ccccc1Sc1ccccc1,> 100
13,CN1CCN(C2=NC(=O)CC(C(=O)Nc3cccc(Cl)c3)N2)CC1 (configuration not stated),> 100
14,CN(C)CCCC1Sc2ccccc2Sc2ccccc21 (configuration not stated),36.7
15,CN1CCCC(CC2Oc3ccccc3Sc3ccccc32)C1 (configuration not stated),11.5
16,NC(=O)C1(N2CCCCC2)CCN(CC(=O)Nc2ccccc2Sc2ccccc2)CC1,> 100
17,O=C(CN1CCCCCC1)N1c2ccccc2Sc2ccc(Cl)cc21,78.7
18,c1ccc2c(c1)Sc1ccccc1N2CC1CN2CCC1CC2 (configuration not stated) [MEQUITAZINE],21.8
